# Source: patent US20230026616A1, “PYRIMIDOIMIDAZOLE COMPOUNDS USED AS DNA-PK INHIBITORS” (MEDSHINE DISCOVERY INC., priority 2019, published 2023)
# Marks after values point to notes of the source that are not given here.
# Key:
# [1] = Pharmacokinetic evaluation in Beagle dogs; type: in vivo, Male Beagle dogs; settings: for Tlast / AUC(0-t) / C0 / clearance / half-life / Vd / Cmax / Tmax: Beagle dog plasma; for F: Beagle dog, PO 5 mpk vs IV 1 mpk; for AUC(0-t) / C0 / clearance / half-life / Vd / Cmax / Tmax: male; for Vd: read-out: Vdss
# Excerpt: (§1) IV: intravenous injection; PO: oral; C0: instantaneous […] concentration after intravenous injection; Cmax: highest plasma concentration after administration; Tmax: time required to reach peak of drug concentration after administration; T1/2: time required for the plasma drug concentration to decrease by half, Vdss: apparent volume of distribution, refers to the proportional constant of the drug dose in vivo and the blood drug concentration when the drug reaches a dynamic equilibrium in vivo. Cl: clearance rate, refers to the […] cleared from the body per unit time; Tlast: time at the last detection point; AUC0-last: area under the drug-time curve, refers to the area covered by the plasma concentration curve and the time axis; F: a measure of the speed and degree of drug absorption into the blood circulation, which is an important indicator for evaluating the degree of drug absorption.
# Test compounds were mixed with 10% dimethyl sulfoxide/50% polyethylene glycol 200/40% water, vortexed and sonicated to prepare a nearly clear solution of 1 mg/mL, then filtered through a microporous membrane for next step. Male Beagle dogs were selected and administered intravenously with the candidate compound solution at a dose of 1 mg/kg. Test compounds were mixed with 10% dimethyl sulfoxide/50% polyethylene glycol 200/40% water, vortexed and sonicated to prepare a nearly clear solution of 1 mg/mL, then filtered with a microporous membrane for next step. Male Beagle dogs were selected and orally administered with the candidate compound solution at a dose of 5 mg/kg. Whole blood was collected for a certain period of time, and plasma was prepared, then drug concentration was detected by LC-MS/MS method, and pharmacokinetic parameters were calculated by Phoenix WinNonlin software (Pharsight, USA).
# [2] = Pharmacokinetic evaluation (1): cassette PK in Balb/c male mice, plasma; type: in vivo; settings: for AUC(0-t) / C0 / clearance / half-life / Vd / Cmax / Tmax: male, Balb/c; for AUC(0-t) / C0 / clearance / half-life / Vd / Cmax / Tmax / Tlast: mouse plasma; for Vd: read-out: Vdss; for Tmax: read-out: Tmax; for F: mouse
# Experimental: Test compounds were mixed with 10% dimethyl sulfoxide/50% polyethylene glycol 200/40% water (compounds 1, 4, 10, 17) or 20% N,N-dimethylacetamide/80% water (compound 5), vortexed and sonicated to prepare a nearly clear solution of 0.08 mg/mL (compounds 1, 4, 10, 17) or 0.50 mg/mL (compound 5), then filtered through a microporous membrane for next step. Balb/c male mice of 18 to 20 grams were selected and administered intravenously with the candidate compound solution at a dose of 0.4 (compounds 1, 4, 10, 17) or 1 mg/kg (compound 5). Test compounds were mixed with 10% dimethyl sulfoxide/50% polyethylene glycol 200/40% water (compounds 1, 4, 10, 17) or 20%-hydroxypropyl-β-cyclodextrin (compound 5), vortexed and sonicated to prepare a nearly clear solution of 0.2 mg/mL (compounds 1, 4, 10, 17) or 1 mg/mL (compound 5), then filtered through a microporous membrane for next step. Balb/c male mice of 18 to 20 grams were selected and orally administered with the candidate compound solution at a dose of 2 (compounds 1, 4, 10, 17) or 5 mg/kg (compound 5). Whole blood was collected for a certain period of time, and plasma was prepared, then drug concentration was detected by LC-MS/MS method, and pharmacokinetic parameters were calculated by Phoenix WinNonlin software (Pharsight, USA).
# as §1
# [3] = biological target: T1, Human DNA-PK (Homo sapiens, UniProt P78527); assay: DNA-dependent protein kinase (DNA-PK) inhibitory activity screening (Eurofins, HTRF); type: biochemical; settings: ATP: 10 μM; read-out: DNA-PK kinase inhibition IC50
# T1 construct: purchased Eurofins (Eurofins Pharma Discovery Service)
# Experimental: Experimental Embodiment 1: DNA-Dependent Protein Kinase (DNA-PK) Inhibitory Activity Screening Experiment
# This experiment was tested in the Eurofins
# Human DNA-PK; Mg/ATP; GST-cMyc-p53; EDTA; Ser15 antibody; ATP: 10 μM.
# Experimental Method (Eurofins Pharma Discovery Service):
# DNA-PK (h) was incubated in assay buffer containing 50 nM GST-cMyc-p53 and Mg/ATP (according to the required concentration). The reaction was initiated by adding Mg/ATP mixture. After 30 minutes of incubation at room temperature, the reaction was stopped by adding a stop solution containing EDTA. Finally, detection buffer (containing labeled anti-GST monoclonal antibody and europium-labeled anti-Ser15 antibody against phosphorylated p53) was added. The plate was then read in time-resolved fluorescence mode, and the homogeneous time-resolved fluorescence (HTRF) signal was determined according to the formula HTRF=10000×(Em665 nm/Em620 nm).
# [4] = Pharmacokinetic and brain exposure evaluation in rats; type: in vivo, SD male rats; settings: for Vd: read-out: Vdss
# Excerpt: as §1
# Test compounds were mixed with 10% dimethyl sulfoxide/50% polyethylene glycol 200/40% water, vortexed and sonicated to prepare a nearly clear solution of 0.5 mg/mL (compound 5) or 1 mg/mL (compound 17), then filtered through a microporous membrane for next step. SD male rats were selected and administered intravenously with the candidate compound solution at a dose of 1 mg/kg (compound 5) or 2 mg/kg (compound 17). Test compounds were mixed with 10% dimethyl sulfoxide/50% polyethylene glycol 200/40% water, vortexed and sonicated to prepare a homogeneous suspension of 4 mg/mL (compound 5) or a nearly clear solution of 1 mg/mL (compound 17). SD male rats were selected and orally administered with the candidate compound solution at a dose of 40 mg/kg (compound 5) or 10 mg/kg (compound 17). Whole blood, cerebrospinal fluid, brain tissue were collected for a certain period of time and plasma was prepared, and the drug concentration was detected by LC-MS/MS method, and the pharmacokinetic parameters were calculated by Phoenix WinNonlin software (Pharsight, USA).
# [5] = male, SD, 2 mg/kg, rat plasma, IV 2 mpk
# [6] = male, SD, 10 mg/kg, rat plasma, PO 10 mpk
# [7] = male, SD, 1 mg/kg, rat plasma, IV 1 mpk
# [8] = male, SD, 40 mg/kg, rat, PO 40 mpk, Cerebrospinal fluid
# [9] = male, SD, 40 mg/kg, rat, PO 40 mpk, Plasma
structure (smiles),measurement,setting,value
Cc1cc2nncn2cc1Nc1ncc2c(n1)n(N1CC3CCC(C1)O3)c(=O)n2C [Compound 17],Tlast,[1]; IV 1 mpk,24 h
same,Tlast,[1]; PO 5 mpk,24 h
same,F,[1],92.3%
same,AUC(0-t),"[1]; 1 mg/kg, IV 1 mpk",6.82 µM·h
same,C0,"[1]; 1 mg/kg, IV 1 mpk",1.45 µM
same,clearance,"[1]; 1 mg/kg, IV 1 mpk",5.89 mL/min/kg
same,half-life,"[1]; 1 mg/kg, IV 1 mpk",5.04 h
same,Vd,"[1]; 1 mg/kg, IV 1 mpk",1.58 L/kg
same,AUC(0-t),"[1]; 5 mg/kg, PO 5 mpk",31.5 µM·h
same,Cmax,"[1]; 5 mg/kg, PO 5 mpk",4.94 µM
same,Tmax,"[1]; 5 mg/kg, PO 5 mpk",1.5 h
same,half-life,"[1]; 5 mg/kg, PO 5 mpk",4.27 h
same,AUC(0-t),[2]; IV 0.4 mg/kg,0.47 µM·h
same,C0,[2]; IV 0.4 mg/kg,0.748 µM
same,clearance,[2]; IV 0.4 mg/kg,34.7 mL/min/kg
same,half-life,[2]; IV 0.4 mg/kg,0.559 h
same,Vd,[2]; IV 0.4 mg/kg,1.39 L/kg
same,AUC(0-t),[2]; PO 2 mg/kg,3.4 µM·h
same,Cmax,[2]; PO 2 mg/kg,1.54 µM
same,half-life,[2]; PO 2 mg/kg,0.81 h
same,Tmax,[2]; PO 2 mg/kg,1 h
same,Tlast,[2]; IV 0.4 mg/kg,4 h
same,Tlast,[2]; PO 2 mg/kg,8 h
same,F,[2]; PO 2 mg/kg vs IV 0.4 mg/kg,144%
same,IC50,[3],0.5 nM
same,AUC(0-t),[4]; [5],4.86 µM·h
same,C0,[4]; [5],5.3 µM
same,clearance,[4]; [5],16.9 mL/min/kg
same,half-life,[4]; [5],1.16 h
same,Vd,[4]; [5],1.4 L/kg
same,AUC(0-t),[4]; [6],32.5 µM·h
same,Tmax,[4]; [6],2 h
same,half-life,[4]; [6],2.29 h
same,Cmax,"[4]; male, SD, 10 mg/kg, rat plasma, PO 10 mpk, read-out: Cmax",6.25 µM
same,Tlast,"[4]; rat plasma, IV 2 mpk",8 h
same,Tlast,"[4]; rat plasma, PO 10 mpk",8 h
Cc1cc2ncnn2cc1Nc1ncc2c(n1)n(N1CC3CCC(C1)O3)c(=O)n2C [Compound 5],Tlast,[1]; IV 1 mpk,24 h
same,Tlast,[1]; PO 5 mpk,24 h
same,F,[1],279%
same,AUC(0-t),"[1]; 1 mg/kg, IV 1 mpk",4.96 µM·h
same,C0,"[1]; 1 mg/kg, IV 1 mpk",1.82 µM
same,clearance,"[1]; 1 mg/kg, IV 1 mpk",8.26 mL/min/kg
same,half-life,"[1]; 1 mg/kg, IV 1 mpk",4.04 h
same,Vd,"[1]; 1 mg/kg, IV 1 mpk",1.87 L/kg
same,AUC(0-t),"[1]; 5 mg/kg, PO 5 mpk",68.3 µM·h
same,Cmax,"[1]; 5 mg/kg, PO 5 mpk",9.27 µM
same,Tmax,"[1]; 5 mg/kg, PO 5 mpk",1.67 h
same,half-life,"[1]; 5 mg/kg, PO 5 mpk",4.27 h
same,AUC(0-t),[2]; IV 1 mg/kg,1.66 µM·h
same,C0,[2]; IV 1 mg/kg,3.6 µM
same,clearance,[2]; IV 1 mg/kg,24.7 mL/min/kg
same,half-life,[2]; IV 1 mg/kg,1.28 h
same,Vd,[2]; IV 1 mg/kg,1.49 L/kg
same,AUC(0-t),[2]; PO 5 mg/kg,3.49 µM·h
same,Cmax,[2]; PO 5 mg/kg,2.17 µM
same,half-life,[2]; PO 5 mg/kg,3.85 h
same,Tmax,[2]; PO 5 mg/kg,0.25 h
same,Tlast,[2]; PO 5 mg/kg,10 h
same,F,[2]; PO 5 mg/kg vs IV 1 mg/kg,44.5%
same,IC50,[3],1 nM
same,AUC(0-t),[4]; [7],2.38 µM·h
same,C0,[4]; [7],3.04 µM
same,clearance,[4]; [7],17 mL/min/kg
same,half-life,[4]; [7],1.45 h
same,Vd,[4]; [7],1.41 L/kg
same,Tmax,"[4]; male, SD, 40 mg/kg, rat, PO 40 mpk, Brain tissue",4 h
same,AUC(0-t),[4]; [8],7.74 µM·h
same,Tmax,[4]; [8],2 h
same,Cmax,"[4]; male, SD, 40 mg/kg, rat, PO 40 mpk, Cerebrospinal fluid, read-out: Cmax",1.26 µM
same,AUC(0-t),[4]; [9],59.9 µM·h
same,Tmax,[4]; [9],2 h
same,Cmax,"[4]; male, SD, 40 mg/kg, rat, PO 40 mpk, Plasma, read-out: Cmax",10.2 µM
same,Tlast,"[4]; rat plasma, IV 1 mpk",8 h
same,AUC0-last,"[4]; rat, PO 40 mpk, Brain tissue",6369^b h*nmol/kg
same,Cmax,"[4]; rat, PO 40 mpk, Brain tissue",1019^a nmol/kg
same,Tlast,"[4]; rat, PO 40 mpk, Brain tissue",8 h
same,Tlast,"[4]; rat, PO 40 mpk, Cerebrospinal fluid",8 h
same,Tlast,"[4]; rat, PO 40 mpk, Plasma",8 h
